This note sets out measurements from patent US8383657B2, “Thiazolylidine urea and amide derivatives and methods of use thereof” (Abbott Laboratories, priority 2007, dated 2013).

What all share (type): cell-based
The target in experiment [1] is T1, α7 NNRs (Homo sapiens, UniProt P36544).
T1 construct: using cells natively expressing α7 NNRs; host or cells: IMR-32 neuroblastoma cells
As to the kind of experiment: High-throughput calcium flux (FLIPR) assay using IMR-32 cells expressing endogenous α7 NNRs. Further details: Emax: dose or concentration left out as unconfirmed. Background: Calcium flux is commonly read through the fluorescence of an indicator in the cells.
Method: (ii) High-Throughput Calcium Flux Assays Using Cells Expressing Endogenous α7 NNRs
IMR-32 neuroblastoma cells (ATCC) were grown to confluency in 162 cm^2 tissue culture flasks in minimum essential media supplemented with 10% FBS and 1 mM sodium pyruvate, 0.1 mM non-essential amino acids and 1% antibiotic-antimycotic. The cells were then dissociated using cell dissociation buffer and 40 μl of 3.5×10^5 cells/ml cell suspension was plated (about 15,000 cells/well) into black plates with clear bottom and maintained for 48 hours in a tissue culture incubator at 37° C. under an atmosphere of 5% CO2: 95% air. […] Calcium flux was measured using calcium-3 assay kit (Molecular Devices, Sunnyvale, Calif.) or fluo-4. A stock solution of the dye was prepared by dissolving each vial supplied by the vendor in Hank's balanced salt solution buffer (HBSS) containing 20 mM HEPES. The stock solution was diluted 1:20 using the same buffer before use. After removing the growth media, the cells were loaded with 45 μl of the dye and incubated at room temperature for three hours. Fluorescence measurements were read simultaneously from all the wells by a Fluorometric Imaging Plate Reader (FLIPR) at an excitation wavelength of 480 nm and an emission wavelength of 520 nm. Baseline fluorescence was measured for the first 10 seconds at which 5× concentrations of modulator/test compounds were added to the cell plate and incubated for three minutes. The fluorescence intensity was captured every second for the first 1 minute followed by every 5 seconds for an additional 2 minutes. This procedure was followed by 20 μl of 4× concentration of agonist and readings were taken for a period of three minutes as described above. […] The concentration dependence of changes fluorescence responses was fitted by nonlinear regression analysis (GraphPad Prism, San Diego, Calif.) to obtain EC50 values.
PAMs were identified by measuring fluorescence changes to intracellular calcium in a fluorometric plate reader in the presence of selective α7 NNR agonists using cells natively expressing α7 NNRs. […]

Experiment [2] deals with T2, α7 NNRs (Rattus norvegicus, UniProt Q05941).
T2 construct: host or cells: PC-12 rat pheochromocytoma cells
As to the kind of experiment: High-throughput ERK phosphorylation assay (in-cell western) using PC-12 cells expressing endogenous α7 NNRs. As to the method: (iii) High-Throughput ERK Phosphorylation Assays Using Cells Expressing Endogenous α7 NNRs
Rat pheochromocytoma (PC-12) cells (ATCC, Manassas, Va.) were cultured and maintained in F-12K media supplemented with 15% horse serum, 2.5% fetal calf serum, and 2 mM L-glutamine in poly-D lysine coated dishes at 37° C. and 5% CO2. Cells were plated in black-walled clear bottom 96-well Biocoat™ plates coated with poly-D-lysine (BD Biosciences, Bedford, Mass.) and grown for 2-3 days. Afterward, the culture media is replaced with serum-free media to starve cells overnight. On the day of the assay, cell media was removed and cells (60-80% confluent) were treated with agonist and/or modulator in Dulbecco's phosphate buffer saline (D-PBS) (with Ca^2+, Mg^2+, and 1 mg/ml D-glucose), as indicated in the result section.
PC-12 cells are treated for 10 minutes at 37° C. with test PAM compounds and then challenged with a selective α7 agonist for 5 minutes at 37° C. in a final volume of 100 μl/well, unless otherwise indicated. After treatment, media was discarded and adherent cells were immediately fixed in the presence of 150 μl/well of 3.7% formaldehyde/phosphate-buffered saline for 30-60 minutes at room temperature. […] Well intensities were quantitated and phospho-ERK signals were normalized to total ERK signals by the Odyssey software. […]

For experiment [3], the target named is T3, human α7 NNR (Homo sapiens, UniProt P36544).
T3 construct: expressed in transfected cells; host or cells: Xenopus laevis oocytes injected with cRNA
As to the kind of experiment: Two-electrode voltage-clamp in Xenopus laevis oocytes: potentiation of ACh-evoked α7 currents. To be noted: FIG. 1A. Here is the method: (i) Two-Electrode Voltage-Clamp in Xenopus laevis Oocytes.
X. laevis oocytes were prepared for electrophysiological experiments as described in the literature (see for example, Briggs, C. A., Mckenna, D. G., and Piattina-kaplan, M., Human α7 nicotinic acetylcholine receptor responses to novel ligands, Neuropharmacology, 1995, 34: 583-590; Briggs, C. A., and Mckenna, D. G., Activation and inhibition of the human α7 nicotinic acetylcholine receptor by agonists, Neuropharmacology, 1998, 37: 1095-1102). […] Responses were measured by two-electrode voltage clamp using parallel oocyte electrophysiology test station (Abbott, Abbott Park, Ill.) (see for example, Trumbull, J. D., Maslana, E. S., McKenna, D. G., Nemcek, T. A., Niforatos, W., Pan, J. Y., Parihar, A. S., Shieh, C. C., Wilkins, J. A., Briggs, C. A., and Bertrand, D., High throughput electrophysiology using a fully automated, multiplexed recording system, Receptors Channels, 2003, 9: 19-28). […] The data were expressed as percentage potentiation over the response to 0.1 mM ACh alone. […]
A general note: Two-electrode voltage clamp is typically applied to oocytes expressing channels or transporters.

T1 sequence (P36544 23-502): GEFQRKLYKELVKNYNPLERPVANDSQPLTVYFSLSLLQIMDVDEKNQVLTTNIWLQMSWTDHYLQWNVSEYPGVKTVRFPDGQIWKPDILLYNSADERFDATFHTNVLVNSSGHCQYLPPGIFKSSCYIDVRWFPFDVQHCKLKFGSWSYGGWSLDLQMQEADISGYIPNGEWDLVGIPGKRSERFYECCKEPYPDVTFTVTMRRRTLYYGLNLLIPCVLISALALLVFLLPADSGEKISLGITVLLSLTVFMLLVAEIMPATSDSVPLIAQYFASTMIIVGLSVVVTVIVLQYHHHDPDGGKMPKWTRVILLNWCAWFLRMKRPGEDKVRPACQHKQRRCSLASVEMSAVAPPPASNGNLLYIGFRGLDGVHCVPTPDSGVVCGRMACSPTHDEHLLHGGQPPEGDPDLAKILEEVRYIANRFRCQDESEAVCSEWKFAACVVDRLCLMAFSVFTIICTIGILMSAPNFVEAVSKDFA
T2 sequence (Q05941 23-502): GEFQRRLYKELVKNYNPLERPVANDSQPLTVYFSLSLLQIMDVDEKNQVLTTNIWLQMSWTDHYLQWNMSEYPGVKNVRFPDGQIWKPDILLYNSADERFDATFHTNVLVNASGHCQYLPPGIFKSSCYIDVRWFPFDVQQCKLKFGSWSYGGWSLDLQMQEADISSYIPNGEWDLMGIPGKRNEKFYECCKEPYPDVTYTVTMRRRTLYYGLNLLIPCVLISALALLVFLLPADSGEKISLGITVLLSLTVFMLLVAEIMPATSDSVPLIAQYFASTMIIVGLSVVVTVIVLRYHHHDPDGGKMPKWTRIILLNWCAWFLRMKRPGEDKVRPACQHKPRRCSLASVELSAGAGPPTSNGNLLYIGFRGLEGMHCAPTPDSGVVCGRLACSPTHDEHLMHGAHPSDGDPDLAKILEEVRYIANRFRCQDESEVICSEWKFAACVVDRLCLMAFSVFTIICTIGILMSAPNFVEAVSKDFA
T3 sequence (P36544 23-502): as the sequence (P36544 23-502) above

A word on the EC50: it is the concentration needed to bring the measured effect to its halfway point. Regarding `Cc1cn(-c2ccc(C(F)(F)F)cc2)/c(=N/C(=O)N2CCCC2)s1` [Example 18, N-[(2Z)-5-methyl-3-[4-(trifluoromethyl)phenyl]-1,3-thiazol-2(3H)-ylidene]pyrrolidine-1-carboxamide], the 50% effective concentration (EC50) in experiment [1] (FIG. 1B, IMR-32 cells, agonist 4-(5-phenyl-[1,3,4]oxadiazol-2-yl)-1,4-diaza-bicyclo[3.2.2]nonane at 10 μM, read-out: EC50 value, calcium fluorescence response) stood at 3.4 µM; in experiment [2] (FIG. 1C, PC-12 cells, α7 selective agonist PNU-282987), 1.4 µM; in experiment [3] (0.1 mM ACh, oocytes injected with human α7 NNR cRNA, read-out: EC50 value, potentiating 0.1 mM ACh-evoked α7 currents in oocytes), 4 µM. The Emax is 110% in experiment [1] (IMR-32, read-out: maximal effects, normalized change in fluorescence) and 111% in experiment [2] (PC-12, read-out: maximal efficacy). Further, the degree of potentiation in experiment [3] (percentage potentiation over the response to 0.1 mM ACh alone) turned out to be 300%.
For `CCN1C[C@]2(COC(=O)c3ccccc3N3C(=O)C[C@H](C)C3=O)CC[C@H](OC)[C@@]34[C@@H]5C[C@H]6[C@H](OC)[C@@H]5[C@](O)(C[C@@H]6OC)[C@@](O)([C@@H](OC)[C@H]23)[C@@H]14` [methyllycaconitine, reference compound], the “effect on calcium response to agonist plus modulator” value in experiment [1] (IMR-32 cells, α7 selective antagonist) is given as “abolishes response”.
